Laboratory results reported in US11286263B2, “Macrocyclic fluorine substituted indole derivatives” (The Broad Institute, Inc., priority 2017, dated 2022).
Several values for one entry are separate records, joined by “and”; a condition that tells them apart may be missing. Identical values can stand only once. Counter-ions that a name gives are not always drawn. Like-named read-outs stand apart in the source and are kept apart here.

What was measured:
SUDHL5 [1] = assay: Induction of caspase-3/7 activity, SUDHL5 (Assay 4); assay type: cell-based; settings: SUDHL5 cells
In short: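 DLBCL lines treated with compounds for 3 h at 37° C.; caspase-3/7 activity read by Caspase-Glo 3/7 luminescence. Medium-only background subtracted; EC50 fitted with bottom fixed at 1 and top set to reference compound's maximal induction.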

SUDHL5 [2] = assay: Induction of cytotoxicity, SUDHL5 (Assay 6); settings: read-out: IC50 Cytotox SUDHL5 [M] (median), SUDHL5 cells, 5 h, CellTiter-Glo
BCL-2 = BCL-2 (Homo sapiens (Human), UniProt P10415); assay: Protein-protein interaction assay BCL-2/Bad BH3 peptide (BCL-2 assay), TR-FRET; assay type: binding; settings: BCL-2/Bad BH3 peptide TR-FRET; median
Procedure: Assay 3 Protein-Protein Interaction assay: BCL-2/Bad BH3 Peptide (BCL-2 Assay)
The dose-dependent inhibition by the compounds described in this invention of the interaction between BCL-2 and the BH3 domain of Bad (both human) was determined using a steady state binding competition assay with time-resolved fluorescence energy transfer (TR-FRET) readout. For that purpose BCL-2 (amino acids 1-211, C-terminal fused to a hexahistidine (6× His) tag (SEQ ID 5) and a synthetic Bad BH3-derived peptide of sequence Biotin-PEG2-PEG2-NLWAAQRYGRELRR-Nle-SDEFVDSFKK-amide (SEQ ID 4) served as protein receptor and tracer ligand respectively. The recombinant BCL-2 protein (expressed in E. coli) was purchased from BPS Bioscience (San Diego, Calif., USA). The Bad BH3-derived peptide can be obtained from e.g. Biosyntan (Berlin, Germany).
In the assay 11 different concentrations of each compound (0.1 nM, 0.33 nM, 1.1 nM, 3.8 nM, 13 nM, 44 nM, 0.15 μM, 0.51 μM, 1.7 μM, 5.9 μM and 20 μM) were typically measured as duplicates in the same microtiter plate. For that, 100-fold concentrated DMSO solutions were prepared by serial dilutions (1:3.4) of a 2 mM stock solution in a clear, 384-well microtiter plate (Greiner Bio-One, Frickenhausen, Germany). From there, 50 nl were transferred in a dark test plate (Greiner Bio-One, Frickenhausen, Germany). The assay was initiated by addition of 2 μl of a 2,5-fold concentrated His-BCL-2 solution (usually for a 1 nM end concentration in 5 μl reaction volume) in aqueous assay buffer [50 mM Tris/HCl pH 7, 100 mM sodium chloride (NaCl), 50 mM potassium fluoride (KF), 0.005% Tween-20, 2 mM DTT, 0.1% bovine gamma globulin (BGG)] to the compounds in the assay plate. This was followed by a 10-minute incubation step at 22° C. for pre-equilibration of the putative complex between His-BCL-2 and the compounds. After that, 3 μl of a 1.67-fold concentrated solution (in assay buffer) consisting of Bad BH3-derived peptide (1 nM end concentration) and TR-FRET detection reagents [1.67 nM anti-His-Eu cryptate and 1.67 nM streptavidin-XL665 (both from Cisbio Bioassays, Codolet, France)], were added.
The mixture was incubated in the dark for one hour at 22° C. and then overnight at 4° C. The formation of BCL-2/Bad complexes was determined by measuring the resonance energy transfer of the anti-His-Eu-cryptate antibody to the streptavidin-XL665 present in the reaction. For that purpose, the fluorescence emission at 620 nm and 665 nm after excitation at 330-350 nm was measured in a TR-FRET measuring instrument, for instance a Rubystar or a Pherastar (both from BMG Lab Technologies, Offenburg, Germany) or a Viewlux (Perkin-Elmer). The ratio of the emission at 665 nm and at 622 nm was used as indicator of the amount of BCL-2/Bad complexes present.
The resulting data (ratio) were normalized, taking 0% inhibition as the mean value of control measurements (usually 32 data points) where all reagents were included. In this case 50 nl DMSO were used instead of compounds. A 100% inhibition corresponded to the mean value of control measurements (usually 32 data points) where all reagents except BCL-2 were included. IC50 values were determined by regression analysis based on a 4 parameter equation (minimum, maximum, IC50, Hill; Y=Max+(Min−Max)/(1+(X/IC50)^Hill) using the Screener Software (Genedata).

MV-4-11 = assay: Antiproliferation assay MV-4-11 (Assay 7); assay type: cell-based; settings: MV-4-11 cells, 72 h, CellTiter-Glo, single determinations, read-out: IC50 Antiproli MV-4-11
In short: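 Proliferation is determined by CellTiter-Glo luminescence following 72 h incubation with compound at 37 °C, relative to a time-zero plate measured at plating.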

[3] = Homo sapiens, SU-DHL-5, 3 h, Caspase-Glo 3/7, median

Chain of BCL-2 (P10415 1-211): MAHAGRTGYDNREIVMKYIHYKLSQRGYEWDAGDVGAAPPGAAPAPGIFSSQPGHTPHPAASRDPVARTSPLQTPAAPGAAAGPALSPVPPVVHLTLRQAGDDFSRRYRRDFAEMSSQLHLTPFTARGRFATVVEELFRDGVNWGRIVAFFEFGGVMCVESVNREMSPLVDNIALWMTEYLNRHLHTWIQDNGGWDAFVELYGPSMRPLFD

| EC50 (SUDHL5 [1]; [3]) [nM] | IC50 (BCL-2) [nM] | EC50 (SUDHL5 [1]; 3 h, Caspase-Glo 3/7, median) [nM] | IC50 (MV-4-11) | IC50 (MV-4-11; listed as 07) | SMILES | IC50 (SUDHL5 [2]; Homo sapiens, SU-DHL-5, 5 h) [M] | IC50 (SUDHL5 [2]) [M] |
| --- | --- | --- | --- | --- | --- | --- | --- |
| 380 | > 20000 |  |  |  | CCc1c2c(nn1C)CN(C)CCCCn1c(C(=O)O)c(CCCOc3cccc4cc(F)ccc34)c3ccc(F)c-2c31 (racemic) [Example 53, (rac)-3-ethyl-4-fluoro-7-{3-[(6-fluoro-1-naphthyhoxy]propyl}-2,14-dimethyl-10,11,12,13,14,15-hexahydro-2H-pyrazolo[3′,4′:8,9][1,6]diazacycloundecino[10,11,1-hi]indole-8-carboxylic acid] | 3.3e-07 |  |
|  | > 20000 |  |  |  | CCc1c2c(nn1C)COCCCCn1c(C(=O)O)c(CCCOc3cccc4cc(F)ccc34)c3ccc(F)c-2c31 (single isomer, unassigned; enantiomer 1) [Example 24, 3-ethyl-4-fluoro-7-{3-[(6-fluoronaphthalen-1-yl)oxy]propyl}-2-methyl-2,10,11,12,13,15-hexahydropyrazolo[4′,3′:9,10][1,6]oxazacycloundecino[8,7,6-hi]indole-8-carboxylic acid (enantiomer 1)] |  | 3.9e-07 |
|  |  | 340 | 679 nM and 412 nM |  | Cc1c2c(nn1C)COCCCCn1c(C(=O)O)c(CCCOc3cccc4cc(F)ccc34)c3ccc(F)c-2c31 (single isomer, unassigned; enantiomer 1) [Example 13, 4-fluoro-7-{3-[(6-fluoronaphthalen-1-yl)oxy]propyl}-2,3-dimethyl-2,10,11,12,13,15-hexahydro-pyrazolo[4′,3′:9,10][1,6]oxazacycloundecino[8,7,6-hi]indole-8-carboxylic acid-N-ethylethanamine salt (enantiomer 1)] |  | 3.9e-07 |
|  |  | 660 |  |  | CCc1c2c(nn1C)COCCCCn1c(C(=O)O)c(CCCOc3ccc(F)c4ccccc34)c3ccc(F)c-2c31 (single isomer, unassigned; enantiomer 1) [Example 27, 3-ethyl-4-fluoro-7-{3-[(4-fluoronaphthalen-1-yl)oxy]propyl}-2-methyl-2,10,11,12,13,15-hexahydropyrazolo[4′,3′:9,10][1,6]oxazacycloundecino[8,7,6-hi]indole-8-carboxylic acid-N-ethylethanamine salt (enantiomer 1)] |  | 1e-06 |
|  |  | 210 |  |  | CCc1c2c(nn1C)COCCCCn1c(C(=O)O)c(CCCOc3cccc4cc(F)ccc34)c3ccc(F)c-2c31 (single isomer, unassigned; enantiomer 1) [Example 22, 3-ethyl-4-fluoro-7-{3-[(6-fluoronaphthalen-1-yl)oxy]propyl}-2-methyl-2,10,11,12,13,15-hexahydropyrazolo[4′,3′:9,10][1,6]oxazacycloundecino[8,7,6-hi]indole-8-carboxylic acid-N-ethylethanamine salt (enantiomer 1)] |  | 3.3e-07 |
|  |  | 370 |  | 2370 nM and 1940 nM | CCc1c2c(nn1C)COCCCCn1c(C(=O)O)c(CCCOc3cccc4ccccc34)c3ccc(F)c-2c31 (single isomer, unassigned; enantiomer 1) [Example 7, 3-ethyl-4-fluoro-2-methyl-7-{3-[(naphthalen-1-yl)oxy]propyl}-2,10,11,12,13,15-hexahydro-pyrazolo[4′,3′:9,10][1,6]oxazacycloundecino[8,7,6-hi]indole-8-carboxylic acid-N-ethylethanamine salt (enantiomer 1)] |  | 4.6e-07 |
|  |  | 2700 | 15500 nM |  | CCc1c2c(nn1C)COCCCCn1c(C(=O)O)c(CCCOc3cccc4cc(F)ccc34)c3ccc(F)c-2c31 (single isomer, unassigned; enantiomer 2) [Example 23, 3-ethyl-4-fluoro-7-{3-[(6-fluoronaphthalen-1-yl)oxy]propyl}-2-methyl-2,10,11,12,13,15-hexahydropyrazolo[4′,3′:9,10][1,6]oxazacycloundecino[8,7,6-hi]indole-8-carboxylic acid-N-ethylethanamine salt (enantiomer 2)] |  | 3.2e-06 |
|  |  | 560 |  |  | CCc1nn(C)c2c1-c1c(F)ccc3c(CCCOc4cccc5cc(F)ccc45)c(C(=O)O)n(c13)CCCCOC2 (single isomer, unassigned; enantiomer 1) [Example 39, 3-ethyl-4-fluoro-7-{3-[(6-fluoronaphthalen-1-yl)oxy]propyl}-1-methyl-1,10,11,12,13,15-hexahydropyrazolo[4′,3′:9,10][1,6]oxazacycloundecino[8,7,6-hi]indole-8-carboxylic acid-N-ethylethanamine salt (enantiomer 1)] |  | 6.2e-07 |

The remaining lines, values behind:

| SMILES | EC50 (SUDHL5 [1]; [3]) [nM] | IC50 (BCL-2) [nM] | EC50 (SUDHL5 [1]; 3 h, Caspase-Glo 3/7, median) [nM] | IC50 (MV-4-11) | IC50 (MV-4-11; listed as 07) | IC50 (SUDHL5 [2]; Homo sapiens, SU-DHL-5, 5 h) [M] | IC50 (SUDHL5 [2]) [M] |
| --- | --- | --- | --- | --- | --- | --- | --- |
| Cc1c2c(nn1C)COCCCCn1c(C(=O)O)c(CCCOc3cccc4ccccc34)c3ccc(F)c-2c31 (racemic) [Example 2, (rac)-4-fluoro-2,3-dimethyl-7-[3-(naphthalen-1-yloxy)propyl]-2,10,11,12,13,15-hexahydro-pyrazolo[4′,3′:9,10][1,6]oxazacycloundecino[8,7,6-hi]indole-8-carboxylic acid] | 600 |  |  |  |  | 1e-06 |  |
| Cc1c2c(nn1C)COCCCCn1c(C(=O)O)c(CCCOc3ccc(F)c4ccccc34)c3ccc(F)c-2c31 (racemic) [Example 15, (rac)-13-fluoro-1-(3-((4-fluoronaphthalen-1-yl)oxy)propyl)-11,12-dimethyl-4,5,6,7,9,11-hexahydropyrazolo[4′,3′:9,10][1]oxa[6]azacycloundecino[8,7,6-hi]indole-2-carboxylic acid] | 970 | > 20000 |  |  |  | 1.1e-06 |  |
| Cc1c2c(nn1C)COCCCCn1c(C(=O)O)c(CCCOc3cccc4ccccc34)c3ccc(F)c-2c31 (single isomer, unassigned; enantiomer 1) [Example 3, 4-fluoro-2,3-dimethyl-7-[3-(naphthalen-1-yloxy)propyl]-2,10,11,12,13,15-hexahydropyrazolo-[4′,3′:9,10][1,6]oxazacycloundecino[8,7,6-hi]indole-8-carboxylic acid-N-ethylethanamine salt (enantiomer 1)] |  |  | 650 |  |  |  | 7.7e-07 |
| CCc1c2c(nn1C)CN(C)CCCCn1c(C(=O)O)c(CCCOc3cccc4ccccc34)c3ccc(F)c-2c31 (racemic) [Example 54, (rac)-3-ethyl-4-fluoro-2,14-dimethyl-7-[3-(1-naphthyloxy)propyl]-10,11,12,13,14,15-hexahydro-2H-pyrazolo[3′,4′:8,9][1,6]diazacycloundecino[10,11,1-hi]indole-8-carboxylic acid] | 230 | > 20000 |  |  |  | 4.5e-07 |  |
| CCc1c2c(nn1C)CN(C)CCCCn1c(C(=O)O)c(CCCOc3cccc4c3CCCC4)c3ccc(F)c-2c31 (racemic) [Example 52, (rac)-3-ethyl-4-fluoro-2,14-dimethyl-7-[3-(5,6,7,8-tetrahydronaphthalen-1-yloxy)propyl]-10,11,12,13,14,15-hexahydro-2H-pyrazolo[3′,4′:8,9][1,6]diazacycloundecino[10,11,1-hi]indole-8-carboxylic acid] | 280 | > 20000 |  |  |  | 4.3e-07 |  |
